From patent US6919328B1, “Tricyclic compounds with NOS activity” (Neuraxon Inc., priority 2001, dated 2005)
Counter-ions that a name gives are not always drawn.

Legend:
nNOS = nNOS (Homo sapiens, UniProt P29475); assay: nNOS enzyme assay (hemoglobin capture assay); type: biochemical; conditions: for IC50: hemoglobin capture assay, initial velocity, read-out: IC50 of NOS, nNOS; for inhibition at 100 µM: read-out: Percent Inhibition of NOS, nNOS
Procedure: (§1) The generation of nitric oxide by NOS was measured using the hemoglobin capture assay (Proc. Natl. Acad. Sci., U.S.A. 1990, 87, 714). As assay mixture for nNOS contained […], 1.6 mM CaCl2, […] calmoduline, […], 6.5 mM BH4 and 3 mM oxyhemoglobin in 100 mM Hepes (pH 7.5). The reaction mixture for iNOS contained 10 mM of L-arginine, […], 6.5 mM BH4 and 3 mM oxyhemoglobin in 100 mM Hepes (pH 7.5). All assays were in a final volume of […] and were initiated with enzyme. Nitric oxide reacts with oxyhemoglobin to yield methehemoglobin which is detected at 401 nm (e=19,700 M^−1cm^−1) on a Perkin-Elmer Lamda 10 UV/vis spectrophotometer.
(§2) IC50 and percent inhibition of NOS by the compounds of the invention was determined under initial velocity measurement condition with hemoglobin capture assay as described above using varying concentrations of the compounds of the invention.

iNOS = iNOS (Homo sapiens, UniProt P35228); assay: iNOS enzyme assay (hemoglobin capture assay); type: biochemical; conditions: for IC50: hemoglobin capture assay, initial velocity, read-out: IC50 of NOS, iNOS; for inhibition at 100 µM: read-out: Percent Inhibition of NOS, iNOS
Procedure: as §1, §2

Compound	IC50 (nNOS) [µM]	IC50 (iNOS) [µM]	inhibition at 100 µM (nNOS) [%]	inhibition at 100 µM (iNOS) [%]
CC(=O)Nc1ccc2c(c1)C(=O)Nc1ccccc1N2 [Example 7, N-(11-Oxo-10,11-dihydro-5H-dibenzo[b,e][1,4]diazepin-2-yl)-acetamide]	400	500		
O=C(NC(=S)Nc1ccc2c(c1)C(=O)Nc1ccccc1N2)c1ccccc1 [Example 8, 1-Benzoyl-3-(11-oxo-10,11-dihydro-5H-dibenzo[b,e][1,4]diazepin-2-yl)-thiourea]	120	300		
NC(=S)Nc1ccc2c(c1)C(=O)Nc1ccccc1N2 [Example 9, (11-Oxo-10,11-dihydro-5H-dibenzo[b,e][1,4]diazepin-2-yl)-thiourea]	250	300		
CCSC(=N)Nc1ccc2c(c1)C(=O)Nc1ccccc1N2 [Example 10, 2-Ethyl-1-(11-oxo-10,11-dihydro-5H-dibenzo[b,e][1,4]diazepin-2-yl)-isothiourea]	20	100		
CC(=N)Nc1ccc2c(c1)C(=O)Nc1ccccc1N2 [Example 11, N-(11-Oxo-10,11-dihydro-5H-dibenzo[b,e][1,4]diazeoin-2-yl)-acetamidine hydrobromide]	200	500		
N=C(Nc1ccc2c(c1)C(=O)Nc1ccccc1N2)SCc1ccc2ccccc2c1 [Example 12, 2-Naphthalen-2-ylmethyl-1-(11-oxo-10,11-dihydro-5H-dibenzo[b,e][1,4]diazepin-2-yl)-isothiourea]			21	28
N=C(Nc1ccc2c(c1)C(=O)Nc1ccccc1N2)SCc1ccccc1 [Example 13, 2-Benzyl-1-(11-oxo-10,11-dihydro-5H-dibenzo[b,e][1,4]diazepin-2-yl)-isothiourea]			48	29
CC(=N)Nc1ccc2c(c1)C(=O)Nc1ccccc1O2 [Example 14, N-(11-Oxo-10,11-dihydro-dibenzo[b,f][1,4]oxazepin-2-yl)-acetamidine]	200	300		
O=C(NC(=S)Nc1ccc2c(c1)C(=O)Nc1ccccc1O2)c1ccccc1 [Example 15, 1-Benzoyl-3-(11-oxo-10,11-dihydro-dibenzo[b,f][1,4]oxazepin-2-yl)-thiourea]	100	200		
NC(=S)Nc1ccc2c(c1)C(=O)Nc1ccccc1O2 [Example 16, (11-Oxo-10,11-dihydro-dibenzo[b,f][1,4]oxazepin-2-yl)-thiourea]	200	150		
O=C1Nc2ccccc2Oc2ccc(NC(=S)Nc3ccccc3)cc21 [Example 17, 1-(11-Oxo-10,11-dihydro-dibenzo[b,f][1,4]oxazegin-2-yl)-3-phenyl-thiourea]			7	24
N=C(Nc1ccc2c(c1)C(=O)Nc1ccccc1O2)c1cccs1 [Example 18, N-(11-Oxo-10,11-dihydro-dibenzo[b,f][1,4]oxazepin-2-yl)-thiophene-2-carboxamidine hyrobromide]			25	14
N=C(Nc1ccc2c(c1)C(=O)Nc1ccccc1N2)c1cccs1 [Example 19, N-(11-Oxo-10,11-dihydro-5H-dibenzo[b,e][1,4]diazepin-2-yl)-thiophene-2-carboxamidine hydrobromide]			42	17
